# Results from article PMC2361176, “Inhibitory effects of retinoic acid metabolism blocking agents (RAMBAs) on the growth of human prostate cancer cells and LNCaP prostate tumour xenografts in SCID mice” (British Journal of Cancer, 2006).
# Assays:
# LNCaP cells [1] = assay: Cell-cycle analysis (propidium iodide, FACScan); format: cell-based, human; details: 1 μM, 6 days
# Protocol: LNCaP cells were treated with 1 or 5 μM of ATRA or each of the RAMBAs for 6 days. The cells were trypsinised and washed twice in PBS (Life Technologies, Grand Island, NY, USA). The cells were fixed by adding 70% ethanol and stored at −20°C until staining. The cells were washed twice in PBS. A volume of 1 ml of a propidium iodide (PI) solution (50 μg ml^−1 in PBS) and 500 μl of an RNase stock solution (100 μg ml^−1) were added to the cells and incubated for 1 h in the dark. Approximately 10^4 stained cells were then analysed by flow cytometry (Becton Dickenson FACScan, Franklin Lakes, NJ, USA). The percentages of cells in G0/G1, S, and G2/M phases of the cell cycle as well as percentage of apoptotic cells (sub G0/G1) were determined using MODFIT LT software (Verity Software House, San Jose, CA, USA). The percentages of cells in G0/G1, S, and G2/M phases of the cell cycle were obtained from diploid cells in the sample and the percentage of apoptotic cells (sub G0/G1) was obtained from total cells minus the debris.
# LNCaP cells [2] = assay: TUNEL assay of apoptosis in LNCaP cells; format: cell-based, human; details: 1 or 5 μM, 6 days
# Protocol: A total of 4000 LNCaP cells were plated on each well of an eight-well Lab-Tek II® chamber slide (Nalge Nunc International, Naperville, IL, USA). The LNCaP cells were then treated with either 1 or 5 μM of ATRA or RAMBA for 6 days. Cells were then fixed in 4% paraformaldehyde solution in dH2O. The cells were then processed and stained with FITC (fluorescein isothiocyanate) according to kit instructions (In situ cell death detection kit, AP, Roche Diagnostics Corp., Indianapolis, IN, USA). The FITC-stained cells are then mounted with VectorShield® mounting medium for fluorescence with DAPI (4′,6-diamidine-2′-phenylindole dihydrochloride) nuclear stain (Vector Laboratories, Inc., Burlingame, CA, USA) and covered with ApopTag® plastic coverslips (Intergen Company, Purchase, NY, USA). The slides were then examined under fluorescence microscopy (Eclipse E400, Nikon, Inc., Melville, NY, USA) and counted using SPOT Advance® 3.5 software (Diagnostic Instruments, Inc., Sterling Heights, MI, USA).
# Bcl-2 = assay: Western-blot analysis of Bcl-2 in LNCaP cells; format: cell-based, human; details: data not shown
# Protocol: The Western-blot protocol described for cytokeratins 8/18 was followed with some exceptions. Cell lysates (50 μg) were separated on a 15% SDS–PAGE gel. All washing was performed using TBS containing 1% Tween 20 (TBS-T). Blocking was performed using 5% milk in TBS-T. Incubations were performed using rabbit monoclonal IgG antibody to Bad and Bcl-2 (1 : 1000), as well as horseradish peroxidase-linked anti-rabbit IgG antibodies (1 : 2000) (Cell Signaling Technology, Beverly, MA, USA).
# [3] = system: human breast T47D cancer cells; parameters: method as in Van Heusden et al, 2002; details: 1 μM, ref Van Heusden et al, 2002; cited from earlier work
SMILES,"Sub-G1 (%) (LNCaP cells [1]; apoptotic cells, control 9.02)",G2/M (%) (LNCaP cells [1]; control 2.20),S (%) (LNCaP cells [1]; control 15.01),G0/G1 (%) (LNCaP cells [1]; control 82.78),induction of apoptosis (TUNEL) (LNCaP cells [2]),expression of Bcl-2 (Bcl-2),enhancement of the antiproliferative activity of ATRA [3]
"CC1=C(/C=C/C(C)=C/C=C/C(C)=C/C(=O)Nc2ccc(O)cc2)C(C)(C)CCC1 [Compound 4-HPR, reference compound]",7.52%,12.03%,9.18%,79.53%,concentration-dependent induction of apoptosis,did not effect,–
C[C@@H]([C@H](c1ccc(Nc2nc3ccccc3s2)cc1)n1ccnc1)N(C)C [Compound R116010],–,–,–,–,–,–,threefold
